Data taken from EPA's ToxValDB 9.5.
In brackets after ≈: the same amount, converted by molar mass.

Tests used:
Plant = conditions: not reported; seedling emergence
Pleurozium sp. = conditions: acute; duration: 72 hours; growth
Tagia sp. = conditions: for LC50: acute
Bovidae = conditions: oral, diet; for LEL: no effects
Apis mellifera = conditions: acute, mortality
Cyprinus carpio = conditions: acute; duration: 96 hours; mortality
Daphnia magna = conditions: chronic/long-term; duration: 21 days; reproduction
Homo sapiens = conditions: clinical; duration: 15 days; inhalation; clinical signs
Oryctolagus sp. = conditions: oral
Lymnaea stagnalis = conditions: chronic/long-term; duration: 50 days
Bibionidae = conditions: chronic/long-term; duration: 28 days; seedling emergence
Gallus gallus = conditions: for LEL: subchronic, oral, diet, Chicken, no effects
Folsomia candida = conditions: chronic/long-term; duration: 28 days; mortality
Hypoaspis aculeifer = conditions: chronic/long-term; duration: 14 days; mortality
Meleagris sp. = conditions: subchronic, oral, feed, no effects
Oncorhynchus mykiss = conditions: for LC50: duration: 96 hours, mortality; for NOEC: chronic/long-term
Pontoscolex corethrurus = conditions: chronic/long-term; growth
Rattus norvegicus = conditions: for LD50: acute, mortality
Typhlodromus pyri = assay: LR50; higher = less toxic; conditions: acute, mortality
Ovis sp. = conditions: subchronic, oral, diet
Anas platyrhynchos = conditions: oral, mortality
Colinus virginianus = conditions: for LC50 / LD50: acute, oral; for LC50: diet
Leuciscus idus = conditions: chronic/long-term; duration: 66 days; mortality
Pimephales promelas = conditions: chronic/long-term; duration: 36 days; mortality
Danio rerio = conditions: acute; duration: 96 hours; mortality
Anatidae = conditions: short-term; duration: 28 days; oral; feed; no effects
Anser anser = conditions: short-term; duration: 28 days; oral; feed; no effects
Equus caballus = conditions: short-term; duration: 21 days; no effects
Mus musculus = conditions: acute; inhalation; mortality

Compound: O=C(Nc1ccc([N+](=O)[O-])cc1)Nc1ccc([N+](=O)[O-])cc1 [4,4'-Dinitrodiphenylurea]
- NOEC (Plant): 2.9 mg/kg
- NOEC (Pleurozium sp.): 0.042 µg/L
- LC50 (Tagia sp.; duration: 14 days, no effects): > 1000 mg/kg

Compound: C[C@H]1O[C@H](O[C@H]2[C@H](O)[C@@H](O)[C@@H](O[C@@H]([C@H](O)[C@@H](O)C=O)[C@H](O)CO)O[C@@H]2CO)[C@H](O)[C@@H](O)[C@@H]1N[C@H]1C=C(CO)[C@@H](O)[C@H](O)[C@H]1O [Acarbose]
- LEL (Bovidae; subchronic, duration: 56 days, F): 350 mg/kg-day

Compound: CC(=O)O [Acetic acid]
- LD50 (Apis mellifera; dermal): > 96 µg/piece
- LD50 (Apis mellifera; oral, unspecified): > 110 µg/piece
- LC50 (Cyprinus carpio): 43.8 µg/mL (≈ 729 µM)
- NOEC (Daphnia magna): 22.7 mg/L
- NOAEC (Homo sapiens): 10 mg/m3
- NOAEL (Oryctolagus sp.; reproduction developmental, mortality): 16 mg/kg-day
- LC50 (Tagia sp.; mortality): > 1000 mg/kg

Compound: O=[N+]([O-])[O-].O=[N+]([O-])[O-].O=[N+]([O-])[O-].[Al+3] [Aluminum nitrate]
- NOEC (Lymnaea stagnalis): 0.1 mg/L

Compound: CCCc1ncc(C[n+]2ccccc2C)c(N)n1.Cl.[Cl-] [Amprolium hydrochloride]
- NOEC (Bibionidae): 101 mg/kg
- LEL (Gallus gallus; duration: 43 days, M/F): 625 mg/kg-day
- NOEC (Tagia sp.; reproductive, reproduction): 100 mg/kg

Compound: O=C(O)c1ccccc1 [Benzoic acid]
- NOEC (Folsomia candida): 143 mg/kg
- LEL (Gallus gallus; duration: 36 days, M): 1500 mg/kg-day
- NOEC (Hypoaspis aculeifer): 1000 mg/kg
- LEL (Meleagris sp.; duration: 42 days, F): 1500 mg/kg
- LC50 (Oncorhynchus mykiss; acute): > 9 µg/mL
- NOEC (Pontoscolex corethrurus): 384 mg/kg
- LD50 (Rattus norvegicus; oral): > 1700 mg/kg-day
- NOAEL (Rattus norvegicus; chronic, duration: 2 years, oral, diet, other): 500 mg/kg-day
- NOAEL (Rattus norvegicus; chronic, duration: 16 weeks, oral, histopathology: nonneoplastic): 500 mg/kg-day
- LEL (Sus scrofa; repeat dose other, F, Large White x Landrace, clinical chemistry): 20000 mg/kg-day
- LEL (Sus scrofa; repeat dose other, oral, diet, Not specified, histopathology: nonneoplastic): 10000 mg/kg-day
- LEL (Sus scrofa; subchronic, duration: 42 days, oral, diet, M/F, Not specified, no effects): 5000 mg/kg-day
- LEL (Sus scrofa; subchronic, duration: 84 days, oral, diet, Not specified, organ weight): 20000 mg/kg-day

Compound: [Ca+2].[S-]SSS[S-] [Calcium polysulfide]
- LD50 (Apis mellifera; duration: 48 hours, oral, unspecified): > 69.8 µg/piece
- LC50 (Oncorhynchus mykiss; acute): 2.67 µg/mL
- LD50 (Rattus norvegicus; oral): 1340 mg/kg-day
- NOAEL (Rattus norvegicus; subchronic, duration: 90 days, oral, clinical chemistry): 150 mg/kg-day
- LC50 (Tagia sp.; mortality): > 1000 mg/kg
- LR50 (Typhlodromus pyri; duration: 7 days): 113 g/ha

Compound: O=c1[nH]c(=O)[nH]c(=O)[nH]1 [Cyanuric acid]
- LEL (Oncorhynchus mykiss; acute, duration: 3 days, oral, capsule, no effects): 390 mg/kg-day
- NOAEL (Ovis sp.; duration: 77 days, body weight): 600 mg/kg-day
- NOAEL (Rattus norvegicus; chronic, duration: 2 years, oral, drinking water, histopathology: nonneoplastic): 154 mg/kg-day
- LEL (Sus scrofa; acute, duration: 3 days, oral, diet, Not specified, no effects): 400 mg/kg-day

Compound: CC[N+](CC)(CC(=O)Nc1c(C)cccc1C)Cc1ccccc1.O=C([O-])c1ccccc1 [Denatonium benzoate]
- LC50 (Anas platyrhynchos; short-term, feed): 842 mg/kg-day
- LC50 (Colinus virginianus; mortality): 778 mg/kg-day
- LD50 (Colinus virginianus; mortality): 196 mg/kg
- NOEC (Daphnia magna): 5 mg/L

Compound: CNC(=O)/C(=N/OC)c1ccccc1COc1cc(C)ccc1C [Dimoxystrobin]
- NOEC (Leuciscus idus): 15 µg/L
- NOEC (Oncorhynchus mykiss; duration: 28 days, body weight): 10 µg/L
- NOEC (Oncorhynchus mykiss; duration: 97 days, biomass): 1 µg/L
- NOEC (Pimephales promelas): 16 µg/L

Compound: ClC1=C(Cl)C2(Cl)C3C(Cl)C=CC3C1(Cl)C2(Cl)Cl (stereo not given) [Heptachlor]
- NOAEL (Bovidae; subchronic, F): 6 mg/kg-day
- LOAEL (Gallus gallus; repeat dose other, reproduction): 0.01 mg/kg-day
- LEL (Sus scrofa; subchronic, duration: 78 days, oral, Not specified, histopathology: nonneoplastic): 2 mg/kg-day

Compound: OC[C@H]1OC(O[C@H]2[C@H](O)[C@@H](CO)OC(O[C@H]3[C@H](O)[C@@H](CO)OC(O)[C@@H]3O)[C@@H]2O)[C@H](O)[C@@H](O)[C@@H]1O (stereo not given in full) [Laminaran]
- LD50 (Apis mellifera; dermal): > 100 µg/piece
- LD50 (Apis mellifera; oral, unspecified): > 119 µg/piece
- LD50 (Colinus virginianus; mortality): > 1700 mg/kg-day
- LEL (Colinus virginianus; chronic, mortality): > 170 mg/kg-day
- LC50 (Danio rerio): > 71.3 µg/mL
- NOEC (Pontoscolex corethrurus): 262 mg/kg
- LD50 (Rattus norvegicus; oral): > 2000 mg/kg-day
- NOAEL (Rattus norvegicus; subchronic, duration: 90 days, oral, no effects): 1000 mg/kg-day
- LR50 (Typhlodromus pyri): 115 g/ha

Compound: CO[C@@H]1[C@@H](OC)[C@H](C)[C@@](O)(CC(=O)O)O[C@H]1[C@H](C)[C@H]1O[C@@]2(CC[C@@](C)([C@H]3CC[C@@](C)([C@@H]4O[C@@H]([C@H]5O[C@](C)(O)[C@H](C)C[C@@H]5C)C[C@@H]4O[C@@H]4C[C@H](OC)[C@@H](OC)[C@H](C)O4)O3)O2)C[C@H](O)[C@H]1C.N [Maduramicin ammonium]
- LEL (Bovidae; short-term, duration: 28 days): 0.15 mg/kg-day
- NOAEL (Canidae; acute, duration: 3 hours, M/F, Beagle, no effects): ≥ 0.1 mg/kg-day
- LOAEL (Oryctolagus sp.; short-term, duration: 2 weeks, diet, mortality): 0.075 mg/kg-day
- LEL (Ovis sp.; gross pathology): ≥ 2.5 mg/kg-day
- NOEL (Rattus norvegicus; chronic, duration: 2 years, oral, diet): 0.16 mg/kg-day
- NOAEL (Rattus norvegicus; chronic, duration: 2 years, oral, diet, M/F, organ weight): 0.12 mg/kg-day
- NOAEL (Rattus norvegicus; reproduction developmental, M/F, body weight): 0.1 mg/kg-day
- LEL (Sus scrofa; repeat dose other, oral, diet, Not specified, mortality): 37.5 mg/kg-day

Compound: C#CCOc1ccc(CCNC(=O)C(OCC#C)c2ccc(Cl)cc2)cc1OC (stereo not given) [Mandipropamid]
- LD50 (Anas platyrhynchos; acute, unspecified): > 1000 mg/kg-day
- NOAEL (Canidae; subchronic, duration: 90 days, oral, Dog Other, body weight): 25 mg/kg-day
- LC50 (Colinus virginianus; mortality): > 2140 mg/kg-day
- NOEL (Colinus virginianus; reproduction developmental): 83.6 mg/kg-day
- LD50 (Rattus norvegicus; oral): > 5000 mg/kg-day
- NOEL (Rattus norvegicus; chronic, body weight): 20 mg/kg-day
- NOAEL (Rattus norvegicus; chronic, duration: 2 years, body weight): 15.2 mg/kg-day

Compound: CO[C@@H]1[C@@H](O)[C@H](C)[C@@](O)(CC(=O)[O-])O[C@H]1[C@H](C)[C@H]1O[C@@]2(CC[C@@](C)([C@H]3CC[C@@](C)([C@@H]4O[C@@H]([C@H]5O[C@](C)(O)[C@H](C)C[C@@H]5C)C[C@@H]4O[C@H]4CC[C@H](OC)[C@@H](C)O4)O3)O2)C[C@H](O)[C@H]1C.[Na+] [Semduramicin sodium]
- LEL (Anatidae): 25 mg/kg
- LEL (Anser anser): 25 mg/kg
- NOAEL (Canidae; chronic, duration: 12 months, Dog Other, histopathology: nonneoplastic): 0.3 mg/kg-day
- LEL (Equus caballus): 0.25 mg/kg-day
- LEL (Meleagris sp.; duration: 12 weeks): 25 mg/kg
- LEL (Oryctolagus sp.; subchronic, duration: 42 days, diet, M/F, no effects): 25 mg/kg-day
- NOAEL (Rattus norvegicus; chronic, duration: 2 years, oral, diet, clinical chemistry): 0.125 mg/kg-day

Compound: O=S(=O)(F)F [Sulfuryl fluoride]
- LC50 (Danio rerio): 0.89 µg/mL (≈ 8.72 µM)
- LC50 (Mus musculus): 1.67 µg/mL (≈ 16.4 µM)
- NOAEL (Rattus norvegicus; chronic, duration: 2 years, histopathology: nonneoplastic): 20 mg/kg-day
- NOEL (Rattus norvegicus; short-term, duration: 2 days, F, Fischer 344): 300 mg/kg-day
- NOAEL (Rattus norvegicus; subchronic, duration: 90 days, inhalation, histopathology: nonneoplastic): 100 mg/kg-day
